“Also recorded” adds a separate entry of the source.

One may read the EC50 as the midpoint of the concentration-response curve. Higher therefore signals weaker potency.

In assay [1] the test system is A375 cells. Put plainly: AO/PI dye exclusion test (fluorescence microscopy). In kind it is cell-based, human. How it is done: Morphological characteristics of cell death were analyzed employing an AO/PI assay using human cancer cell line A375. Approx. 2 × 10^5 cells were seeded in cell culture flasks (25 cm^2), and the cells were allowed to grow up for 24 h. After removing of the used medium, the substance loaded fresh medium was reloaded (or a blank new medium as a control). After 24 h and 48 h, the content of the flask was collected and centrifuged (1200 rpm, 4 °C), the pellet was gently suspended in phosphate-buffered saline (PBS (w/Ca^2+ and Mg^2+), 1 mL) and centrifuged again. The PBS was removed, and the pellet gently suspended in PBS (150 µL) again. The analysis of the cells was performed using a fluorescence microscope after having mixed the cell suspension (10 µL) with a solution of AO/PI (5 µg/mL, 10 µL).

A further assay relates to A375 (melanoma). Kind of assay: SRB cytotoxicity assay, A375. It counts as cell-based, human. The following applies: for EC50: Homo sapiens, A-375, SRB assay, 72 h of treatment; for Selectivity index SI A375: SI = EC50 (NIH 3T3)/EC50 (A375). The text has this:
(§1) Due to cytotoxicity evaluation, the prepared UA-DOTA conjugates were screened in rhodamine B assays employing a series of human tumor cell lines and non-malignant mouse fibroblasts (NIH 3T3).
(§2) The cell lines used are human cancer cell lines: A2780 (ovarian carcinoma), HT29 (colon adenocarcinoma), MCF-7 (breast adenocarcinoma), A375 (melanoma), FaDu (pharynx squamous cell carcinoma) and non-malignant mouse fibroblasts NIH 3T3; all cell lines were obtained from the Department of Oncology (Martin-Luther-University Halle-Wittenberg). Cultures were maintained as monolayers in RPMI 1640 medium with L-glutamine (Capricorn Scientific GmbH, Ebsdorfergrund, Germany) supplemented with 10% heat inactivated fetal bovine serum (Sigma-Aldrich Chemie GmbH, Steinheim, Germany) and penicillin/streptomycin (Capricorn Scientific GmbH, Ebsdorfergrund, Germany) at 37 °C in a humidified atmosphere with 5% CO2.
(§3) The cytotoxicity of the compounds was evaluated using the sulforhodamine-B (Kiton-Red S, ABCR) micro culture colorimetric assay. Cells were seeded into 96-well plates on day 0 at appropriate cell densities to prevent confluence of the cells during the period of experiment. After 24 h, the cells were treated with six different concentrations (1, 3, 7, 12, 20, and 30 µM) minimum. The final concentration of DMSO/DMF never exceeded 0.5%, which was non-toxic to the cells. After a 72-h treatment, the supernatant medium from the 96-well plates was discarded, the cells were fixed with 10% trichloroacetic acid (TCA) and allowed to rest at 4 °C. After 24 h fixation, the cells were washed in a strip washer and dyed with SRB solution (100 µL, 0.4%, in 1% acetic acid) for about 20 min. After dying, the plates were washed four times with 1% acetic acid to remove the excess of the dye and allowed to air-dry overnight. Tris base solution (200 µL, 10 mM) was added to each well and absorbance was measured at λ = 570 nm using a 96 well plate reader (Tecan Spectra, Crailsheim, Germany). The EC50 values were averaged from three independent experiments performed each in triplicate calculated from semi logarithmic dose response curves applying a non-linear 4P Hills-slope equation (GraphPad Prism5; variables top and bottom were set to 100 and 0, respectively).
(In general: The SRB assay estimates cell density from bound dye.)

The subject of assay [2] is non-malignant mouse fibroblasts NIH 3T3. Put plainly: SRB cytotoxicity assay, NIH 3T3. As to conditions: NIH3T3, 72 h of treatment. In kind it is cell-based.
From the text: as §1, §2, §3

The test system of assay [3] is A2780 (ovarian carcinoma). Put plainly: SRB cytotoxicity assay, A2780. As to conditions: for EC50: SRB assay, 72 h of treatment; for Selectivity index SI A2780: SI = EC50 (NIH 3T3)/EC50 (A2780). In kind it is cell-based, human.
From the text: as §1, §2, §3

In assay [4] the test system is A375 cells. Kind of assay: Annexin V-FITC/PI assay (flow cytometry). In kind it is cell-based, human. The protocol: Approximately 2 × 10^5 cells (A375) were seeded in cell culture flasks (25 cm^2), and the cells were allowed to grow up for 24 h. After removing of the used medium, the substance loaded fresh medium was reloaded (or a blank fresh medium as a control). After 24 h and 48 h, the cells were harvested, centrifuged (1200 rpm, 4 °C), and washed twice with PBS (w/Ca^2+ and Mg^2+, 1 mL). The cells were counted and approximately 1∙10^6 cells were washed with Annexin V binding buffer (BioLegend®, San Diego, USA) and treated with propidium iodide solution (3 µL, 1 mg/mL) and Annexin V-FITC (5 µL, BioLegend®, San Diego, CA, USA) for 15 min in the dark at room temperature. After adding Annexin V binding buffer (400 µL) the suspension was analyzed using Attune® FACS machine. After gating for living cells, the data from detectors BL-1A and BL-3A were collected (20,000 events) in technical triplicates. The assay was performed in duplicates; cell distribution was calculated using Attune® Software (ThermoFisher Scientific, Braunschweig, Germany).

The subject of assay [5] is HT29 (colon adenocarcinoma). Put plainly: SRB cytotoxicity assay, HT29. In kind it is cell-based, human. The following applies: for EC50: Homo sapiens, HT-29, SRB assay, 72 h of treatment; for Selectivity index SI HT29: SI = EC50 (NIH 3T3)/EC50 (HT29).
From the text: as §1, §2, §3

For assay [6], the system named is MCF-7 (breast adenocarcinoma). Put plainly: SRB cytotoxicity assay, MCF-7. In kind it is cell-based, human. The following applies: for EC50: Homo sapiens, MCF7, SRB assay, 72 h of treatment; for Selectivity index SI MCF-7: SI = EC50 (NIH 3T3)/EC50 (MCF-7).
From the text: as §1, §2, §3

The test system of assay [7] is A375 cells. Put plainly: Cell cycle investigations (PI, flow cytometry). It counts as cell-based, human. The protocol: Approximately 2 × 10^5 cells (A375) were seeded in cell culture flasks (25 cm^2), and the cells were allowed to grow up for 24 h. After removing of the used medium, the substance loaded fresh medium was reloaded (or a blank fresh medium as a control). After 24 h or 48 h, respectively, only the adherent cells were harvested, centrifuged (1200 rpm, 4 °C), and washed twice with PBS ((w/w), 1 mL). The cells were counted and approximately 1 × 10^6 cells were fixed with ethanol (70%, 4 °C, 24 h). After centrifugation (4500 rpm, 4 °C) the cells were washed with PBS ((w/w), 1 mL) and centrifuged. The pellet was resuspended in 1 mL RNAse A containing PI buffer (100µL RNAse (100 mg/mL), 15 µL PI solution (1 mg/mL)) and after incubating for 30 min at room temperature in the dark, cells were analyzed using the Attune® FACS machine; collecting data from the BL-2A channel. Doublet cells were excluded from the measurements by plotting BL-2A against BL-2H. For each cell cycle distribution 20,000 events were collected in technical triplicates, each sample was measured in duplicates. Cell cycle distribution was calculated using ModFitLT™ (Verity Software House, Topsham, ME, USA).

Assay [8] has as its system FaDu (pharynx squamous cell carcinoma). Put plainly: SRB cytotoxicity assay, FaDu. It counts as cell-based, human. As to conditions: for EC50: Homo sapiens, FaDu, SRB assay, 72 h of treatment; for Selectivity index SI FaDu: SI = EC50 (NIH 3T3)/EC50 (FaDu).
From the text: as §1, §2, §3

The next assay relates to human tumor cell lines. Put plainly: SRB cytotoxicity assay, statements over the whole cell line panel. The following applies: summary over all tumor cell lines. It counts as cell-based.
From the text: as §1, §2, §3

Regarding `CC(=O)O[C@H]1CC[C@@]2(C)C(CC[C@]3(C)C2CC=C2C4[C@@H](C)[C@H](C)CC[C@]4(C(=O)N4CCN(C(=O)CN5CCN(CC(=O)OC(C)(C)C)CCN(CC(=O)OC(C)(C)C)CCN(CC(=O)OC(C)(C)C)CC5)CC4)CC[C@]23C)C1(C)C` (stereo partly drawn) [compound 22, Tri-tert-butyl 2,2’,2’’-[10-[2-[4-(3β-acetyloxy-urs-12-en-28-oyl)piperazin-1-yl]-2-oxoethyl]-1,4,7,10-tetraazacyclododecane-1,4,7-triyl]triacetate], the “fluorescence microscopic images versus control” value in the assay on A375 cells [1] (A375, 3.0 µM, 24 h) is on record as “no significant differences in comparison to the control”. Also, the “cell morphology in fluorescence microscopic images” value in the assay with A375 cells [1] (A375, 3.0 µM, 48 h) is reported as “ruptures of the plasma membrane”. In the assay with A375 (melanoma), the EC50 was 1.5 ± 0.4 µM and the “Selectivity index SI A375” value was found to be 3.07. The compound further registered an EC50 in [2] of 4.6 ± 1 µM. The EC50 in [3] (Homo sapiens, A2780, 72 h) was 1.7 µM. Besides, in [3], the “Selectivity index SI A2780” value came to 2.42 and the EC50 was 1.9 ± 0.3 µM. In addition, in the assay on A375 cells [4] (A375, 3.0 µM, 24 h), the “density plots versus control” value is recorded as “no significant differences in comparison to the control”. In the assay with A375 cells [4] (A375, 3.0 µM, 48 h), the “annexin V-FITC-positive cells” value was 32.9% and the “apoptotic cells (R4)” value was determined as 17.4%. Moreover, the “vital cells (R3)” value in the assay with A375 cells [4] (A375, 3.0 µM, 48 h, control 86.0%) is 66.3%. Moreover, in assay [5], a half-maximal response (EC50) required 5.7 ± 0.5 µM and the “Selectivity index SI HT29” value is on record as 0.81. In assay [6], the response was half-maximal at 4.4 ± 0.7 µM (EC50) and the “Selectivity index SI MCF-7” value is on record as 1.05. The “cell cycle distribution versus control” value with A375 cells [7] (A375, 3.0 µM, 48 h) was “G1/G0, G2/M, and S phase were drastically reduced; also recorded: an increased population of cells with reduced DNA content has been observed in the subG1 region”. In assay [8], the response was half-maximal at 3.7 ± 0.6 µM (EC50) and the “Selectivity index SI FaDu” value was determined as 1.24.
For the compound `CC(=O)O[C@H]1CC[C@@]2(C)C(CC[C@]3(C)C2CC=C2C4[C@@H](C)[C@H](C)CC[C@]4(C(=O)NCCNC(=O)CN4CCN(CC(=O)OC(C)(C)C)CCN(CC(=O)OC(C)(C)C)CCN(CC(=O)OC(C)(C)C)CC4)CC[C@]23C)C1(C)C` (stereo partly drawn) [compound 24, Tri-tert-butyl 2,2’,2’’-[10-[2-[2-(3β-acetyloxy-urs-12-en-28-oylamino)ethyl]amino-2-oxoethyl]-1,4,7,10-tetraazacyclododecane-1,4,7-triyl]triacetate], in the assay on A375 cells [1] (A375, 4.0 µM, 24 h), the “cell morphology in fluorescence microscopic images” value is listed as “vital cells (green staining) with some of them having ruptured cell membranes”. The concentration giving a half-maximal response (EC50) is 2 ± 0.1 µM in the assay on A375 (melanoma); 1.4 ± 0.1 µM in assay [2]; 1.7 ± 0.1 µM in assay [3] (Homo sapiens, A2780, 72 h); below 2.5 µM with human tumor cell lines; 2.3 ± 0.3 µM in [5]; 1.8 ± 0.1 µM in assay [6]. In addition, the EC50 in [8] came out at 2 ± 0.2 µM. For the same compound, in the assay with A375 (melanoma), the “Selectivity index SI A375” value is 0.70. In addition, the “Selectivity index SI A2780” value in [3] came out at 0.82. In the assay with A375 cells [4] (A375, 4.0 µM, 24 h), the “annexin V-FITC-positive cells” value was 63%. In addition, the “apoptotic cells (R4)” value in the assay with A375 cells [4] (A375, 4.0 µM, 24 h) came out at 51.9%. Moreover, the “vital cells (R3)” value in the assay with A375 cells [4] (A375, 4.0 µM, 24 h, control 86.1%) was 36.7%. Also, the “Selectivity index SI HT29” value in [5] came out at 0.61. The “Selectivity index SI MCF-7” value in assay [6] is listed as 0.78. Also, in the assay on A375 cells [7] (A375, 4.0 µM, 24 h), the “cell cycle distribution versus control” value is “decreased number of cells in G1/G0, G2/M, as well as in S phase; also recorded: a large population of cells has been shifted into the subG1 region”. Also, the “Selectivity index SI FaDu” value in [8] was 0.70.

(Values after publication PMC6630699, “Synthesis and Cytotoxicity Evaluation of DOTA-Conjugates of Ursolic Acid” (Molecules, 2019).)
